From patent US20150232876A1, “Use of a Receptor Kinase Having LysM Motifs in Order to Improve the Response of Plants to Lipochitooligosaccharides” (INSTITUT NATIONAL DE LA RECHERCHE AGRONOMIQUE, priority 2012, published 2015)
pKd, pKi: −log10 of the molar value. Values belong to the compound of their own block, whether it stands above or below them.

How the values were obtained:
[1] = tested on: 100 kDa polypeptide (MtNFBS2); test: Photolabeling of the 100 kDa polypeptide in membrane fractions, with excess competitors; format: binding, Medicago truncatula; conditions: 2 μM competitor, 5 nM azido ligand, dmi3 membrane fraction
From the text: To assess the molecular mass of the affine protein of Nod factors responsible for binding properties of MtNFBS2, a photolabeling with Nod factors analogs containing a photoactivatable group, which after irradiation in a given wavelength reactive species which can form a covalent bond with the surrounding molecules, has been taken. […] homologues of these molecules have been synthesized and labeled with ^35S to enable detection of the stable complex ligand/binding protein.
For photolabeling, 5 nM of radioactive and photoactivatable ligand, alone or in the presence of an excess (2 μM) different competitors were incubated in binding buffer, in the same conditions as described in Example 1 above for the binding experiments at equilibrium, with 300 micrograms of membrane protein fraction obtained from cultured cells of wild-type Medicago truncatula (A 17), or the dmi3 mutant of Medicago truncatula. After 1 hour of incubation, the samples were irradiated for 5 min at 254 nm or 10 min at 365 nm with a fluorescent tube at a distance of 4 cm. The free ligand was removed by centrifugation, and the membrane pellet was washed two times in binding buffer.
The membrane pellet proteins were separated by polyacrylamide gel electrophoresis in 10% SDS, and transferred onto nitrocellulose membrane, and detection was carried out by autoradiography.

PsLYR3 = PsLYR3 (Lathyrus oleraceus, UniProt A0A9D5BD18); test: Equilibrium, saturation and competitive binding on MtLYR3 ortholog expressed in N. benthamiana leaves; set-up: species or system Pisum sativum; conditions: PsLYR3; for pKi: read-out: Affinity (Ki)
From the text: (§1) In legumes, MtLYR3 orthologs have been identified in P. sativum, P. vulgaris and L. japonicus. In G. max orthologs exist in duplicate due to a duplication of the genome. The corresponding genes have been cloned and sequenced. A few differences in sequence compared with sequences in the databases were found which could be explained by the use of different varieties of plants or by sequencing errors in databases. The cloned genes were introduced into binary vectors, in C-terminal fusion with the fluorescent protein YFP, and introduced into Nicotiana benthamiana leaves using agroinfiltration by Agrobacterium tumefaciens, as described above in Example 3. The membrane fractions were isolated, their protein content was analyzed by electrophoresis under denaturing conditions, followed by immunodetection using anti-GFP antibody as described in Example 3, and their ability to interact with LCOs was determined by equilibrium binding, as described in Example 1, in the presence of 1 nM LCO-IV (S^35, C16:2Δ2, 9). The value of specific binding is determined by the value of difference between the total binding and the nonspecific binding obtained for incubation in the presence of an excess (2 μM) of unlabeled ligand. For comparison, the ability to interact of LjNFR5 and LjNFR1 receptors, identified in L. japonicus to play a role in nodulation by a genetic approach (MADSEN et al, Nature, 425, 637-40, 2003. RADUTOIU et al., Nature, 425, 585-92, 2003a) and respective orthologs of LYK3 and NFP in M. truncatula was determined under the same conditions.
(§2) To further characterize the binding properties of MtLYR3 orthologs to LCOs, saturation and competitive binding experiments in the presence of different COs or LCOs were performed.

GmLYR3-1 = GmLYR3-1 (Glycine max, UniProt A5YJW2); test: as above; conditions: GmLYR3-1; for pKi: read-out: Affinity (Ki)
From the text: as §1, §2

GmLYR3-11 = GmLYR3-11 (Glycine max, UniProt I1LHL9); test: as above; conditions: GmLYR3-11; for pKi: read-out: Affinity (Ki)
From the text: as §1, §2

LjLYS12 = LjLYS12 (Lotus japonicus, UniProt D3KTZ9); test: as above; conditions: LjLYS12; for pKi: read-out: Affinity (Ki)
From the text: as §1, §2

PvLYR3 = PvLYR3 (Phaseolus vulgaris, UniProt V7CFC1); test: as above; conditions: PvLYR3; for pKi: read-out: Affinity (Ki)
From the text: as §1, §2

LYR3 = LYR3 (Medicago truncatula, UniProt G7KAT5); test: Saturation and competitive binding on LYR3-YFP expressed in N. benthamiana leaf membrane fractions; conditions: for Ki: LYR3-YFP in N. benthamiana leaf membranes, competition with 0.9 nM LCO-IV(35S, C16:2Δ2,9), read-out: Affinity (nM) for LYR3 (Ki); for affinity / competition for binding to LYR3 (in words): competition with radioactive LCO
From the text: Genes LYR3, LYK9 and LYR6 were inserted into a binary vector, fused in C-terminal with a fluorescent protein (Yellow Fluorescent Protein: YFP) and introduced into Nicotiana benthamiana leaves using agroinfiltration by Agrobacterium tumefaciens. Meanwhile, NFP and LYK3 genes which encode putative receptors […] Nod factors were inserted into the same vectors and expressed in the same conditions.
3 days after agro-infiltration, leaves of N. benthamiana expressing the different constructs were harvested and ground in liquid nitrogen. Membrane fractions were prepared from the ground material, using the same protocol as that described above for the preparation of microsomal fractions, except that 0.6% (w/v) of polyvinyl-polypyrrolidone were added to extraction buffer. After centrifugation at 3000×g, the supernatant was collected and centrifuged at 45000×g. The resulting (membrane fraction) pellet was resuspended in binding buffer, and stored at −80° C. in the presence of 10% or 50% glycerol, until use.
Membrane proteins were separated by 10% polyacrylamide gel electrophoresis in SDS, and transferred onto nitrocellulose membrane, and detection of recombinant proteins made using anti-GFP antibody. Meanwhile, the properties of specific binding to LCOs were assessed by equilibrium binding, as described in Example 1, using 0.8 to 2.4 nM of LCO-IV (^35S, C16:2Δ2, 9) +/−2 μM of unlabeled LCO-IV (S, C16: 2Δ2, 9), and 25 micrograms to 80 micrograms of membrane protein, depending of the expression level of the protein labeled with YFP.
To further characterize the binding properties of the protein LYR3, saturation binding experiments using LCO-IV (^35S, C16:2Δ2, 9) and competitive binding experiments in the presence of different COs or LCOs were performed.

Chain of GmLYR3-1 (A5YJW2 entry or part of it): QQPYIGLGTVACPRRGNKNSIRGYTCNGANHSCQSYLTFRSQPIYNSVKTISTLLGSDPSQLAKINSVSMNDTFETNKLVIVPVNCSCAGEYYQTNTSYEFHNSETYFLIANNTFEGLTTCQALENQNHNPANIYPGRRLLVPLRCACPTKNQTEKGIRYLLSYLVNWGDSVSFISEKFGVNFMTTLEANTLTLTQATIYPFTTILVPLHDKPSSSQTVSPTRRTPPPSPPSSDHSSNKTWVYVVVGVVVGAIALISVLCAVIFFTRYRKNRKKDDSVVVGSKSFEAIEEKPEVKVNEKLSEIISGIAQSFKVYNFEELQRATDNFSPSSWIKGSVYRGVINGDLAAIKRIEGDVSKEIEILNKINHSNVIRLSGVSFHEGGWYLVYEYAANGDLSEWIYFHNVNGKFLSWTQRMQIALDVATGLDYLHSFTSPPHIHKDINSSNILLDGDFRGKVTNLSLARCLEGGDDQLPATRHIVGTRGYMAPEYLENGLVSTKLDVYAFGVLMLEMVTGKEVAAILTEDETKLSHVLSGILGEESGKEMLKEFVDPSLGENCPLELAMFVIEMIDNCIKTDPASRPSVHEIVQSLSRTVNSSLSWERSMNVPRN
Chain of PsLYR3 (A0A9D5BD18 entry or part of it): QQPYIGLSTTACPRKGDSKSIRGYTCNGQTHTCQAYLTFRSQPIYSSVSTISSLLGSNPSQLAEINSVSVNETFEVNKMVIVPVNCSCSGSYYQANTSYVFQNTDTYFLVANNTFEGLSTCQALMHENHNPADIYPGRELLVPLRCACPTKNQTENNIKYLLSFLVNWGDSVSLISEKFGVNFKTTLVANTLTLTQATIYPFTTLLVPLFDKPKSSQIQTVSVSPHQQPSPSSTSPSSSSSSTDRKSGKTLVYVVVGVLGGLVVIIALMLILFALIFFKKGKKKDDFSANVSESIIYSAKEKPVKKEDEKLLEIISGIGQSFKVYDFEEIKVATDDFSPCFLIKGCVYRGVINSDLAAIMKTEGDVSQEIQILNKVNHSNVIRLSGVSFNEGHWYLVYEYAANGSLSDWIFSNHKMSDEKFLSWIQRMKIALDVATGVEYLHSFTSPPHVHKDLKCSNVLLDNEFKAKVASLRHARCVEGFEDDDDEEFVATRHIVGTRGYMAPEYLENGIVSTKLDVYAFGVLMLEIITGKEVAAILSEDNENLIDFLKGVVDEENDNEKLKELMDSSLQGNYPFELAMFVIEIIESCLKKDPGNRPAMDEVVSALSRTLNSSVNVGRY
Chain of LjLYS12 (D3KTZ9 entry or part of it): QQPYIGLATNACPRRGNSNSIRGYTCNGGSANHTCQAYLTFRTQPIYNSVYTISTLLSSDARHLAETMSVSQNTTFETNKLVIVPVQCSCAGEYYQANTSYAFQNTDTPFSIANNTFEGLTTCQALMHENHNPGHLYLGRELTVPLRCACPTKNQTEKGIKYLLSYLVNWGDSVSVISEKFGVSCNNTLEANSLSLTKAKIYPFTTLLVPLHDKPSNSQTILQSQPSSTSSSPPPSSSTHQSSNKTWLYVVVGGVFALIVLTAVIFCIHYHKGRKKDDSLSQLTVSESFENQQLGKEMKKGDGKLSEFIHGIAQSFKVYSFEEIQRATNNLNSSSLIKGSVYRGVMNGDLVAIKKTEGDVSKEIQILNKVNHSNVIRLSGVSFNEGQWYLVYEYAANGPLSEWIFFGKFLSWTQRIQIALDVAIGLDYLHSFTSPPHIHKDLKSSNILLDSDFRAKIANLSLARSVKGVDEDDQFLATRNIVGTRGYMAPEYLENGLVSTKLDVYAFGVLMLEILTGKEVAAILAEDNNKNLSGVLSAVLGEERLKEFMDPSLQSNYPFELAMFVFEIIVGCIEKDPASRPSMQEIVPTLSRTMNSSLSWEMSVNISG
Chain of PvLYR3 (V7CFC1 entry or part of it): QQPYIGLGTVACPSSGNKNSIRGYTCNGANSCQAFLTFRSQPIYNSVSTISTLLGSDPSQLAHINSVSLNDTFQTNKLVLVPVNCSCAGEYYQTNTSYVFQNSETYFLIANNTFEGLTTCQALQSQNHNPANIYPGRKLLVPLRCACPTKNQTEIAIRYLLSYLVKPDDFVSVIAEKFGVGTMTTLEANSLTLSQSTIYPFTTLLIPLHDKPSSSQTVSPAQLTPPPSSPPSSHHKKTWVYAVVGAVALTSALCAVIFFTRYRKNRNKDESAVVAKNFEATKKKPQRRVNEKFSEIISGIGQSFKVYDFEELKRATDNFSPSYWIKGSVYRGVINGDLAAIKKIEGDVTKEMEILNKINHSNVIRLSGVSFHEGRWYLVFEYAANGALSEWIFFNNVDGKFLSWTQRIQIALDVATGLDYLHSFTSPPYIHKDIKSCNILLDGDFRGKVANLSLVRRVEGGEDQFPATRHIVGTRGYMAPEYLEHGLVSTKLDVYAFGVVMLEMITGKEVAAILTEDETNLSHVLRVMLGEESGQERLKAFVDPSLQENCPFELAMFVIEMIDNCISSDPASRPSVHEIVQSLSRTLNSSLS
Chain of GmLYR3-11 (I1LHL9 entry or part of it): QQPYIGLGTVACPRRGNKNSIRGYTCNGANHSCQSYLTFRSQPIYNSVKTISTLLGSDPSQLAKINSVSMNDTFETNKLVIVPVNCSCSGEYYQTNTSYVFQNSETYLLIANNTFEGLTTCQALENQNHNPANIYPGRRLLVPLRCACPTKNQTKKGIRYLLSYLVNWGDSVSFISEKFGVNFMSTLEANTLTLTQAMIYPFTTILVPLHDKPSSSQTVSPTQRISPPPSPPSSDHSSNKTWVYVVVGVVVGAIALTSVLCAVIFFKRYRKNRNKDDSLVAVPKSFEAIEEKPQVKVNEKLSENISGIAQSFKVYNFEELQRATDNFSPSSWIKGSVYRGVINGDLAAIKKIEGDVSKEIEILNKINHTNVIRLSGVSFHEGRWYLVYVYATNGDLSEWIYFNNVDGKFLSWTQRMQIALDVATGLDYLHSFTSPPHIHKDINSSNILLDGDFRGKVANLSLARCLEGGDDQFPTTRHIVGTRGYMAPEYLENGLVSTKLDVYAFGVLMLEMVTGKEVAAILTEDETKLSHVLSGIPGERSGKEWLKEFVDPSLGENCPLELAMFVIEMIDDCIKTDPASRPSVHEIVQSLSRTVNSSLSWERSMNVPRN
Chain of LYR3 (G7KAT5 entry or part of it): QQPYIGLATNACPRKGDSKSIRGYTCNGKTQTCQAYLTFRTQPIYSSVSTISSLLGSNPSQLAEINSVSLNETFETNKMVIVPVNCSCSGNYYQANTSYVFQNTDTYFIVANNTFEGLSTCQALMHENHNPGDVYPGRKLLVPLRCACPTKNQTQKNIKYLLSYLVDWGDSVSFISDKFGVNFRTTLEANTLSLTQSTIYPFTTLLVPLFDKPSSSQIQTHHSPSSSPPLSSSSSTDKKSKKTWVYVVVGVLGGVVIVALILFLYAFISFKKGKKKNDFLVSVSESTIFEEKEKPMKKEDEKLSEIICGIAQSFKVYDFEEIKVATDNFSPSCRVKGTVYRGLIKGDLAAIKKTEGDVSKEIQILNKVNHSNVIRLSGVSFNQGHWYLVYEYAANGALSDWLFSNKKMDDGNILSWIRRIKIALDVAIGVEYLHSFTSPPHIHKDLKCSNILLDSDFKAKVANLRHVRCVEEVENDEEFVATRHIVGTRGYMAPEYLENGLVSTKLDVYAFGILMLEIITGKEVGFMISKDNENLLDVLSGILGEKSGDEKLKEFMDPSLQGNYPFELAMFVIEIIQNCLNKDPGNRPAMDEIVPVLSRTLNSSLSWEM

Compound: CCCCCC/C=C\CCCCC/C=C/C(=O)N[C@H]1[C@H](O[C@H]2[C@H](O)[C@@H](NC(C)=O)[C@H](O[C@H]3[C@H](O)[C@@H](NC(C)=O)[C@H](O[C@H]4[C@H](O)[C@@H](NC(C)=O)C(O)O[C@@H]4COS(=O)(=O)O)O[C@@H]3CO)O[C@@H]2CO)O[C@H](CO)[C@@H](O)[C@@H]1O (stereo partly drawn) [LCO-IV(S, C16:2Δ2, 9)]
- binding of the radiolabeled photoactivatable ligand to the 100 kDa polypeptide in presence of excess competitor [1]: completely abolished
- pKd (PsLYR3; read-out: Affinity (Kd)): 7.51
- pKd (GmLYR3-1; read-out: Affinity (Kd)): 7.49
- pKd (GmLYR3-11; read-out: Affinity (Kd)): 7.19
- pKd (LjLYS12; read-out: Affinity (Kd)): 7.48
- pKd (PvLYR3; read-out: Affinity (Kd)): 7.40

Compound: peptidoglycan
- affinity / competition for binding to LYR3 (in words) (LYR3): no competition

Compound: CCCCCCCC/C=C\CCCCCCCC(=O)N[C@H]1[C@H](O[C@H]2[C@H](O)[C@@H](NC(C)=O)[C@H](O[C@H]3[C@H](O)[C@@H](NC(C)=O)[C@H](O[C@H]4[C@H](O)[C@@H](NC(C)=O)C(O)O[C@@H]4COS(=O)(=O)O)O[C@@H]3CO)O[C@@H]2CO)O[C@H](CO)[C@@H](O)[C@@H]1O (stereo partly drawn) [LCO-IV(S, C18:1Δ9)]
- binding of the radiolabeled photoactivatable ligand to the 100 kDa polypeptide in presence of excess competitor [1]: inhibited
- Ki (LYR3): 13.5 nM
- pKi (PsLYR3): 7.80
- pKi (GmLYR3-1): 7.92
- pKi (GmLYR3-11): 7.72
- pKi (LjLYS12): 8.15
- pKi (PvLYR3): 7.89

Compound: CC(=O)N[C@H]1[C@H](O[C@H]2[C@H](O)[C@@H](NC(C)=O)[C@H](O[C@H]3[C@H](O)[C@@H](NC(C)=O)C(O)O[C@@H]3CO)O[C@@H]2CO)O[C@H](CO)[C@@H](O[C@@H]2O[C@H](CO)[C@@H](O[C@@H]3O[C@H](CO)[C@@H](O[C@@H]4O[C@H](CO)[C@@H](O)[C@H](O)[C@H]4NC(C)=O)[C@H](O)[C@H]3NC(C)=O)[C@H](O)[C@H]2NC(C)=O)[C@@H]1O (stereo partly shown) [CO-VI]
- Ki (LYR3): 1200 nM

Compound: CCCCCCCCCCCCCCCC(=O)N[C@H]1[C@H](O[C@H]2[C@H](O)[C@@H](NC(C)=O)[C@H](O[C@H]3[C@H](O)[C@@H](NC(C)=O)[C@H](O[C@H]4[C@H](O)[C@@H](NC(C)=O)C(O)O[C@@H]4COS(=O)(=O)O)O[C@@H]3CO)O[C@@H]2CO)O[C@H](CO)[C@@H](O)[C@@H]1O (stereo partly drawn) [LCO-IV(S, C16:0)]
- Ki (LYR3): 26 nM
- pKi (PsLYR3): 7.62
- pKi (GmLYR3-1): 7.74
- pKi (GmLYR3-11): 7.49
- pKi (LjLYS12): 7.96
- pKi (PvLYR3): 7.77

Compound: CCCCCCCC/C=C\CCCCCCCC(=O)N[C@H]1[C@H](O[C@H]2[C@H](O)[C@@H](NC(C)=O)[C@H](O[C@H]3[C@H](O)[C@@H](NC(C)=O)[C@H](O[C@H]4[C@H](O)[C@@H](NC(C)=O)C(O)O[C@@H]4CO)O[C@@H]3CO)O[C@@H]2CO)O[C@H](CO)[C@@H](O)[C@@H]1O (stereo partly shown) [LCO-IV(C18:1Δ9)]
- binding of the radiolabeled photoactivatable ligand to the 100 kDa polypeptide in presence of excess competitor [1]: inhibited
- Ki (LYR3): 22 nM

Compound: CCCCCC/C=C\CCCCCCCC(=O)N[C@H]1[C@H](O[C@H]2[C@H](O)[C@@H](NC(C)=O)[C@H](O[C@H]3[C@H](O)[C@@H](NC(C)=O)[C@H](O[C@H]4[C@H](O)[C@@H](NC(C)=O)[C@H](O[C@H]5[C@H](O)[C@@H](NC(C)=O)C(O)O[C@@H]5CO)O[C@@H]4CO)O[C@@H]3CO)O[C@@H]2CO)O[C@H](CO)[C@@H](O)[C@@H]1O (stereo partly shown) [LCO-V(C16:1Δ9)]
- Ki (LYR3): 4.3 nM
- affinity / competition for binding to LYR3 (in words) (LYR3): slightly higher

Compound: CC(=O)N[C@H]1[C@H](O[C@H]2[C@H](O)[C@@H](NC(C)=O)[C@H](O[C@H]3[C@H](O)[C@@H](NC(C)=O)C(O)O[C@@H]3CO)O[C@@H]2CO)O[C@H](CO)[C@@H](O[C@@H]2O[C@H](CO)[C@@H](O[C@@H]3O[C@H](CO)[C@@H](O)[C@H](O)[C@H]3NC(C)=O)[C@H](O)[C@H]2NC(C)=O)[C@@H]1O (stereo partly shown) [CO-V]
- Ki (LYR3): 12000 nM
- pKi (PsLYR3): < 5.00
- pKi (GmLYR3-1): < 5.00
- pKi (GmLYR3-11): < 5.00
- pKi (LjLYS12): < 5.00
- pKi (PvLYR3): < 5.00

Compound: CCCCCC/C=C\CCCCCCCC(=O)N[C@H]1[C@H](O[C@H]2[C@H](O)[C@@H](NC(C)=O)C(O)O[C@@H]2CO)O[C@H](CO)[C@@H](O)[C@@H]1O (stereo partly shown) [LCO-II(C16:1Δ9)]
- Ki (LYR3): > 5000 nM
- affinity / competition for binding to LYR3 (in words) (LYR3): very low

Other lines, results leading:

- Ki (LYR3): 21 nM
Compound: CCCCCC/C=C\CCCCCCCC(=O)N[C@H]1[C@H](O[C@H]2[C@H](O)[C@@H](NC(C)=O)[C@H](O[C@H]3[C@H](O)[C@@H](NC(C)=O)[C@H](O[C@H]4[C@H](O)[C@@H](NC(C)=O)C(O)O[C@@H]4COS(=O)(=O)O)O[C@@H]3CO)O[C@@H]2CO)O[C@H](CO)[C@@H](O)[C@@H]1O (stereo partly drawn) [LCO-IV(S, C16:1Δ9)]

- Ki (LYR3): 30 nM
Compound: CCCCCC/C=C\CCCCC/C=C/C(=O)N[C@H]1[C@H](O[C@H]2[C@H](O)[C@@H](NC(C)=O)[C@H](O[C@H]3[C@H](O)[C@@H](NC(C)=O)[C@H](O[C@H]4[C@H](O)[C@@H](NC(C)=O)C(O)O[C@@H]4CO)O[C@@H]3CO)O[C@@H]2CO)O[C@H](CO)[C@@H](O)[C@@H]1O (stereo partly shown) [LCO-IV(C16:2Δ2, 9)]

- Ki (LYR3): 7 nM
Compound: CCCCCCCC/C=C\CCCCC/C=C/C(=O)N[C@H]1[C@H](O[C@H]2[C@H](O)[C@@H](NC(C)=O)[C@H](O[C@H]3[C@H](O)[C@@H](NC(C)=O)[C@H](O[C@H]4[C@H](O)[C@@H](NC(C)=O)C(O)O[C@@H]4COS(=O)(=O)O)O[C@@H]3CO)O[C@@H]2CO)O[C@H](CO)[C@@H](O)[C@@H]1O (stereo partly drawn) [LCO-IV(S, C18:2Δ2, 9)]

- Ki (LYR3): 79 nM
Compound: CCCCCC/C=C\CCCCCCCC(=O)N[C@H]1[C@H](O[C@H]2[C@H](O)[C@@H](NC(C)=O)[C@H](O[C@H]3[C@H](O)[C@@H](NC(C)=O)C(O)O[C@@H]3CO)O[C@@H]2CO)O[C@H](CO)[C@@H](O)[C@@H]1O (stereo partly shown) [LCO-III(C16:1Δ9)]

- Ki (LYR3): 15 nM
- pKi (PsLYR3): 7.30
- pKi (GmLYR3-1): 7.15
- pKi (GmLYR3-11): 6.85
- pKi (LjLYS12): 7.38
- pKi (PvLYR3): 7.64
Compound: CCCCCCCCCCCCCCCC(=O)N[C@H]1[C@H](O[C@H]2[C@H](O)[C@@H](NC(C)=O)[C@H](O[C@H]3[C@H](O)[C@@H](NC(C)=O)[C@H](O[C@H]4[C@H](O)[C@@H](NC(C)=O)C(O)O[C@@H]4CO)O[C@@H]3CO)O[C@@H]2CO)O[C@H](CO)[C@@H](O)[C@@H]1O (stereo partly shown) [LCO-IV(C16:0)]
